Reference: publication PMC11141402, “Cyclic β^2,3-amino acids improve the serum stability of macrocyclic peptide inhibitors targeting the SARS-CoV-2 main protease” (Bulletin of the Chemical Society of Japan, 2024)
*1 amine or outer side, *2 acyl side, *3 side chain or, on linkers, in order; H or OH if unused. Where a SMILES comes first, the peptide text is derived from it. Bridges are numbered along the chain shown (N, C = ends). [ ]: non-standard residue; d: D form. ACHC(1S,2S) = O=C([C@H]1CCCC[C@@H]1N[*:1])[*:2]; X1 = O=C([C@@H]1CCC[C@@H]1N[*:1])[*:2]

Columns and labels:
SARS-CoV-2 M^pro [1] = target: T1, SARS-CoV-2 M^pro (Severe acute respiratory syndrome coronavirus 2, UniProt P0DTD1); test: biochemical
T1 construct: also known as 3-chymotrypsin-like cysteine protease (3CL^pro) and nonstructural protein 5 (nsp5)

SARS-CoV-2 M^pro [2] = target: T1, SARS-CoV-2 M^pro; test: biochemical; type: binding; details: for kon: read-out: ka (kinetic association)
[3] = Serum stability assay in human serum, LC/MS; type: in vitro ADME; details: 37 °C, peptide 10 μM, up to 168 h, mean ± s.d. (n = 3), read-out: t1/2 in serum (converted)
Description: A synthetic macrocyclic peptide (10 μM) and a serum-resistant internal standard peptide consisting only of D-amino acids (NH2-PEG5-wstndwstnd-PEG5-CONH2, 5 μM) were mixed and incubated in human serum (Cosmo Bio, 12181201) at 37 °C for up to 168 h.[16] At each time point, 4 μL of the mixture was removed and quenched by adding 12 μL of methanol, followed by incubation on ice for 15 min. Following centrifugation (15,000 × g, 25 °C, 10 min), 10 μL of the supernatant was mixed with 40 μL of 1% (v/v) TFA in water. Following centrifugation (15,000 × g, 25 °C, 5 min), the supernatant was analyzed using LC/MS employing a reverse-phase column (ACQUITY UPLC BEH C18, 1.7 μm, 2.1 × 150 mm; Waters) and a Xevo G2-XS QTof system (Waters) with a linear gradient from 1% B to 61% B. Buffer A: water with 0.1% (v/v) formic acid; buffer B: acetonitrile with 0.1% (v/v) formic acid. The percentages of remaining peptides were determined by using the peak area integration of the chromatograms. The obtained LC/MS data were analyzed using a MassLynx 4.1 (Waters).

CC(C)C[C@@H]1NC(=O)[C@H](CO)NC(=O)[C@H](CCCNC(=N)N)NC(=O)[C@H](Cc2ccccc2)NC(=O)[C@@H]2CCC[C@@H]2NC(=O)[C@H](Cc2c[nH]cn2)NC(=O)[C@H](Cc2ccccc2)NC(=O)[C@@H](Cc2ccc(O)cc2)NC(=O)CSC[C@H](C(N)=O)NC(=O)CNC(=O)[C@H](Cc2ccccc2)NC(=O)[C@H](C(C)C)NC(=O)[C@H](Cc2ccccc2)NC1=O [BM6, ^AcyFHβ^1FRSLFVFGc-NH2] ({CH2CO}-[dY]FH[X1]FRSLFVFG[dC]-NH2; thioether N-13) gave an IC50 (SARS-CoV-2 M^pro [1]) of 2150 nM, a Kd (SARS-CoV-2 M^pro [2]) of 2.9 nM and a kon (SARS-CoV-2 M^pro [2]) of 260000 M⁻¹ s⁻¹.
CC(C)C[C@@H]1NC(=O)[C@H](Cc2c[nH]cn2)NC(=O)[C@H](Cc2ccc(O)cc2)NC(=O)[C@H](C)NC(=O)[C@H](CC(=O)O)NC(=O)[C@H](Cc2ccccc2)NC(=O)[C@@H](Cc2ccc(O)cc2)NC(=O)CSC[C@H](C(N)=O)NC(=O)[C@H](CCCNC(=N)N)NC(=O)[C@H](C)NC(=O)[C@H](CC(N)=O)NC1=O [BM7A, ^AcyFDA YHLNA Rc-NH2] ({CH2CO}-[dY]FDAYHLNAR[dC]-NH2; thioether N-11) gave an IC50 (SARS-CoV-2 M^pro [1]) greater than 25000 nM, a Kd (SARS-CoV-2 M^pro [2]) greater than 10000 nM and a half-life at 10 μM [3] of 4.2 h.
In the case of CC(C)C[C@@H]1NC(=O)[C@H](C)NC(=O)[C@H](CC(N)=O)NC(=O)[C@H](CC(=O)O)NC(=O)[C@H](Cc2ccc(O)cc2)NC(=O)[C@H](CCCNC(=N)N)NC(=O)[C@H](Cc2c[nH]cn2)NC(=O)[C@H](Cc2ccccc2)NC(=O)[C@@H](Cc2ccc(O)cc2)NC(=O)CSC[C@H](C(N)=O)NC(=O)[C@H](Cc2ccc(O)cc2)NC(=O)[C@H](C(C)C)NC1=O [BM3A, ^AcyFHRYDNA LVYc-NH2] ({CH2CO}-[dY]FHRYDNALVY[dC]-NH2; thioether N-12), the IC50 (SARS-CoV-2 M^pro [1]) is reported as greater than 25000 nM, the Kd (SARS-CoV-2 M^pro [2]) is reported as greater than 10000 nM and the half-life at 10 μM [3] is reported as 4.6 h.
With CC(C)C[C@@H]1NC(=O)[C@H](CC(N)=O)NC(=O)[C@H](Cc2c[nH]cn2)NC(=O)[C@H](Cc2ccccc2)NC(=O)[C@@H]2CCC[C@@H]2NC(=O)[C@H](Cc2c[nH]cn2)NC(=O)[C@H](Cc2ccccc2)NC(=O)[C@@H](Cc2ccc(O)cc2)NC(=O)CSC[C@H](C(N)=O)NC(=O)[C@H](Cc2c[nH]cn2)NC(=O)[C@H](CC(C)C)NC(=O)[C@H](CCCNC(=N)N)NC(=O)[C@H](Cc2ccccc2)NC1=O [BM5, ^AcyFHβ^1FHNLFRLHc-NH2] ({CH2CO}-[dY]FH[X1]FHNLFRLH[dC]-NH2; thioether N-13) the IC50 (SARS-CoV-2 M^pro [1]) was 360 nM, the Kd (SARS-CoV-2 M^pro [2]) was 22 nM and the kon (SARS-CoV-2 M^pro [2]) was 36000 M⁻¹ s⁻¹.
CC(C)C[C@@H]1NC(=O)[C@H]2CCCC[C@@H]2NC(=O)[C@H](CC(N)=O)NC(=O)[C@H](CC(=O)O)NC(=O)[C@H](Cc2ccc(O)cc2)NC(=O)[C@H](CCCNC(=N)N)NC(=O)[C@H](Cc2c[nH]cn2)NC(=O)[C@H](Cc2ccccc2)NC(=O)[C@@H](Cc2ccc(O)cc2)NC(=O)CSC[C@H](C(N)=O)NC(=O)[C@H](Cc2ccc(O)cc2)NC(=O)[C@H](C(C)C)NC1=O [BM3, ^AcyFHRYDNβ^2LVYc-NH2] ({CH2CO}-[dY]FHRYDN[ACHC(1S,2S)]LVY[dC]-NH2; thioether N-12) showed an IC50 (SARS-CoV-2 M^pro [1]) of 40 nM, a Kd (SARS-CoV-2 M^pro [2]) of 7.7 nM and a kon (SARS-CoV-2 M^pro [2]) of 810000 M⁻¹ s⁻¹. The half-life at 10 μM [3] was 48 h.
In the case of CC(C)C[C@@H]1NC(=O)[C@@H](Cc2ccc(O)cc2)NC(=O)CSC[C@H](C(N)=O)NC(=O)[C@H](Cc2ccccc2)NC(=O)[C@H](Cc2c[nH]cn2)NC(=O)[C@@H]2CCCN2C(=O)[C@H](CC(N)=O)NC(=O)[C@@H]2CCC[C@@H]2NC(=O)[C@H]([C@@H](C)O)NC(=O)[C@H](Cc2c[nH]cn2)NC1=O [BM4, ^AcyLHTβ^1NPHFc-NH2] ({CH2CO}-[dY]LHT[X1]NPHF[dC]-NH2; thioether N-10), the IC50 (SARS-CoV-2 M^pro [1]) is reported as greater than 8000 nM, the Kd (SARS-CoV-2 M^pro [2]) is reported as 1200 nM and the kon (SARS-CoV-2 M^pro [2]) is reported as 1700 M⁻¹ s⁻¹.
CC(C)C[C@@H]1NC(=O)[C@H](Cc2c[nH]cn2)NC(=O)[C@H](Cc2ccc(O)cc2)NC(=O)[C@@H]2CCC[C@@H]2NC(=O)[C@H](CC(=O)O)NC(=O)[C@H](Cc2ccccc2)NC(=O)[C@@H](Cc2ccc(O)cc2)NC(=O)CSC[C@H](C(N)=O)NC(=O)[C@H](CCCNC(=N)N)NC(=O)[C@@H]2CCC[C@@H]2NC(=O)[C@H](CC(N)=O)NC1=O [BM7, ^AcyFDβ^1YHLNβ^1Rc-NH2] ({CH2CO}-[dY]FD[X1]YHLN[X1]R[dC]-NH2; thioether N-11) showed an IC50 (SARS-CoV-2 M^pro [1]) of 20 nM, a Kd (SARS-CoV-2 M^pro [2]) of 9.6 nM and a kon (SARS-CoV-2 M^pro [2]) of 170000 M⁻¹ s⁻¹. For the same compound, the half-life at 10 μM [3] was greater than 168 h.
